In publication PMC10046377, “Inhibitors of the Oncogenic PA2G4-MYCN Protein-Protein Interface” (Cancers, 2023):

What was measured:
[1] = system: cleaved PARP and cleaved Caspase 3; assay: Western blot of apoptotic markers; format: cell-based, human; conditions: compared to WS6 treatment at IC50 concentration; no changes in Bcl-2 or Bax
Protocol: Protein was extracted from cell pellets using RIPA buffer (Sigma) with 10% protease inhibitor (Sigma, Sydney, Australia). Quantification of proteins was conducted using Pierce BCA protein assay kit (Thermo Scientific), according to manufacturer’s instructions. A total of 30–50 μg protein samples were loaded onto Criterion TGX 10% precast gel (Bio-Rad) or NuPAGE™ 4–12% Mini Protein Gel (Invitrogen, Life technologies) and transferred to a nitrocellulose membrane (Bio-Rad). […] Quantification of protein expression was measured by Image Lab software (Bio-Rad) and normalised to loading control.
To determine if the drug effects led to apoptosis, we stained cells with annexin-V/7-AAD, a marker of early and late apoptotic events (Figure 2D). […] To confirm the apoptotic status of the cells, protein expression of key apoptotic markers PARP/Cleaved PARP, Caspase 3/Cleaved caspase 3, BCL2, and Bax was measured (Figure 2E).

PA2G4 protein = molecular target: T1, PA2G4 protein (Homo sapiens, UniProt Q9UQ80); assay: Differential scanning fluorimetry of PA2G4; format: binding; parameters: made in house; host or cells: BL21 (DE3) E. coli; conditions: relative to DMSO control
T1 sequence (Q9UQ80 1-394): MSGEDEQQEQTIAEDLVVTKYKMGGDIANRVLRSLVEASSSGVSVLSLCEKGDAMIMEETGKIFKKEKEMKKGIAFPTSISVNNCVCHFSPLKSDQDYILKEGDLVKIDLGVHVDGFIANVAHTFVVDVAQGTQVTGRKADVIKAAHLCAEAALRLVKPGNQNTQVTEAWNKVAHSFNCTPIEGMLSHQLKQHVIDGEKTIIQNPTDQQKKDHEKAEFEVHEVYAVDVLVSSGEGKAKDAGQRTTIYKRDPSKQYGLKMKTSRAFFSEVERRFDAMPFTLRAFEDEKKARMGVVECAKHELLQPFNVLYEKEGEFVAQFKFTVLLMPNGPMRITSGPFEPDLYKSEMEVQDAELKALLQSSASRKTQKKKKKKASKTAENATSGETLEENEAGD
Excerpt: Seeking a further reduction of toxicity and improvements in physicochemical properties, we conducted a second in silico analogue screen using the structure of #3567. A further 33 compounds were purchased and assayed (Supplementary Figure S1C).

SK-N-BE(2)-C cells = assay: Label-free quantitative LC/MS proteomics of treated SK-N-BE(2)-C cells; format: cell-based, human; conditions: 72 h, versus DMSO, LFQ LC/MS
Protocol: SK-N-BE(2)-C cells were incubated with #5333 or #5338 at IC50 concentration of the compound for 72 h. Cells were harvested and the pellets were lysed with RIPA buffer containing protease inhibitors (Sigma-Aldrich, St. Louis, MO, USA). Cell lysates were sent for LFQ/LC/MS analysis at the Bioanalytical Mass Spectrometry Facility, UNSW Sydney. […] Differential protein expression analysis was performed using the DEP (v1.14.0) package in R(v4.1.1). Variance stabilising transformation (vsn) method was used to normalise the protein expression data. Threshold of p-value < 0.05 and log2 fold-change value > |0.6| was used as a cut off to identify differentially expressed proteins. Functional enrichment analysis was performed using DAVID (v 6.8).
To further understand the mechanism of action and off target effects of the WS6 analogues, we used label-free quantitative mass spectrometry of differential proteome expression in response to drug treatment. […] A total of 4255 unique proteins were captured across the three proteomes, of which 258 proteins were differentially expressed after treatment with #5333, and 1371 proteins treated with #5338, when compared to DMSO-treated cells (Figure 4A,B and Supplementary Figure S4A).

[2] = system: neuroblastoma cells (Kelly and SK-N-BE(2)-C); assay: BrdU cell proliferation assay; format: cell-based, human; conditions: 30 μM drug treatment for 48 h
Protocol: Cells were seeded in 96-well plates the day before and then treated with #5333 and #5338 for […]. Cell proliferation was measured using the BrdU ELISA kit (Roche, Millers Point, Australia), according to the manufacturer’s instructions. 10 μM BrdU was added to media and incubated at 37 °C in 5% CO2 for 2 h. Cells were fixed with supplied fixing solution for 30 min and then blocked with 10% FCS in PBS for 10 min. Peroxidase-conjugated anti-BrdU (1:100) was added and incubated for 90 min at room temperature. After washing with PBS for three times, peroxidase substrate was added to the cells. Changes in cell proliferation were calculated from the absorbance readings at 370 nm (495 nm reference wavelength) on the Benchmark Plus microplate reader (Bio-Rad).
We treated human neuroblastoma tumour cell lines with high MYCN and PA2G4 expression (Kelly and SK-N-BE(2)-C), using increasing concentrations of #5333 or #5338, and measured the ability of cells to proliferate and form colonies in vitro over 2 weeks. […] Next, we evaluated cell replication using the BrdU uptake assay in response to 30 μM drug treatment for 48 h (Figure 2C).

**Q.** How did the “expression of cleaved PARP and cleaved Caspase 3” value [1] turn out when Cc1cccc(Oc2cc(N3CCC(C(=O)NCc4cccc(Br)c4)CC3)ncn2)c1C [#5333] was run?
**A.** The value was “increased”.

**Q.** What about the “melting temperature of PA2G4 (DSF)” value (PA2G4 protein) of the same molecule?
**A.** Its value is “increased the melting temperature”.

**Q.** What about the “GATA2 protein fold change” value (SK-N-BE(2)-C cells) of the same molecule?
**A.** Its value is −4.2.

**Q.** What about the “cell proliferation (BrdU uptake)” value [2] of the same molecule?
**A.** The value was “significantly reduced”.

**Q.** For Cc1cccc(Oc2cc(N3CCC(C(=O)N[C@@H](C)CCc4ccccc4)CC3)ncn2)c1C [#5338], which “expression of cleaved PARP and cleaved Caspase 3” value [1] is on record?
**A.** Its value is “increased”.

**Q.** What about the “melting temperature of PA2G4 (DSF)” value (PA2G4 protein) of the same molecule?
**A.** Its value is “increased the melting temperature”.

**Q.** And the “GATA2 protein fold change” value (SK-N-BE(2)-C cells)?
**A.** The value was −5.5.

**Q.** And the “cell proliferation (BrdU uptake)” value [2]?
**A.** Its value is “significantly reduced”.
